Patent US20160101188A1, “NOVEL NANOCARRIER DELIVERED CANCER CHEMOTHERAPEUTIC AGENTS” (UNIVERSITY OF CINCINNATI, priority 2013, published 2016)
Where two headings read alike, the source gives them in different places.

Tests used:
Prostate PC-3 = test: NCI in vitro cell line screen (SRB), single dose; assay type: cell-based, human; settings: Prostate PC-3, single dose of 10 μM
Method: (§1) Four of the preliminary lead compounds: three nucleosides (JT-1-10, VAL-1-15/42, VAL-1-16) and one nucleobase (KB-1-17)—were submitted to the National Cancer Institute for the in vitro cell line screening project (IVCLSP). The screening consisted in the evaluation of this compound against the 60 cell lines at a single dose of 10 μM.
(§2) The human tumor cell lines of the cancer screening panel are grown in RPMI 1640 medium containing 5% fetal bovine serum and 2 mM L-glutamine. For a typical screening experiment, cells are inoculated into 96 well microtiter plates in 100 μL at plating densities ranging from 5,000 to 40,000 cells/well depending on the doubling time of individual cell lines. After cell inoculation, the microtiter plates are incubated at 37° C., 5% CO2, 95% air and 100% relative humidity for 24 h prior to addition of experimental drugs.
(§3) After 24 h, two plates of each cell line are fixed in situ with TCA, to represent a measurement of the cell population for each cell line at the time of drug addition (Tz). Experimental drugs are solubilized in dimethyl sulfoxide at 400-fold the desired final maximum test concentration and stored frozen prior to use. At the time of drug addition, an aliquot of frozen concentrate is thawed and diluted to twice the desired final maximum test concentration with complete medium containing 50 μg/ml gentamicin. Additional four, 10-fold or ½ log serial dilutions are made to provide a total of five drug concentrations plus control. Aliquots of 100 μl of these different drug dilutions are added to the appropriate microtiter wells already containing 100 μl of medium, resulting in the required final drug concentrations.
(§4) Following drug addition, the plates are incubated for an additional 48 h at 37° C., 5% CO2, 95% air, and 100% relative humidity. For adherent cells, the assay is terminated by the addition of cold TCA. Cells are fixed in situ by the gentle addition of 50 μl of cold 50% (w/v) TCA (final concentration, 10% TCA) and incubated for 60 minutes at 4° C. The supernatant is discarded, and the plates are washed five times with tap water and air dried. Sulforhodamine B (SRB) solution (100 μl) at 0.4% (w/v) in 1% acetic acid is added to each well, and plates are incubated for 10 minutes at room temperature. After staining, unbound dye is removed by washing five times with 1% acetic acid and the plates are air dried. Bound stain is subsequently solubilized with 10 mM trizma base, and the absorbance is read on an automated plate reader at a wavelength of 515 nm. For suspension cells, the methodology is the same except that the assay is terminated by fixing settled cells at the bottom of the wells by gently adding 50 μl of 80% TCA (final concentration, 16% TCA). Using the seven absorbance measurements [time zero, (Tz), control growth, (C), and test growth in the presence of drug at the five concentration levels (Ti)], the percentage growth is calculated at each of the drug concentrations levels. Percentage growth inhibition is calculated as:
(§5) [(Ti−Tz)/(C−Tz)]×100 for concentrations for which Ti>/=Tz
(§6) [(Ti−Tz)/Tz]×100 for concentrations for which Ti<Tz.
(§7) Three dose response parameters are calculated for each experimental agent. Growth inhibition of 50% (GI50) is calculated from [(Ti−Tz)/(C−Tz)]×100=50, which is the drug concentration resulting in a 50% reduction in the net protein increase (as measured by SRB staining) in control cells during the drug incubation. The drug concentration resulting in total growth inhibition (TGI) is calculated from Ti=Tz. The LC50 (concentration of drug resulting in a 50% reduction in the measured protein at the end of the drug treatment as compared to that at the beginning) indicating a net loss of cells following treatment is calculated from [(Ti−Tz)/Tz]×100=−50. […]

[1] = system: Non-Small Cell Lung HOP-92; test: NCI in vitro cell line screen (SRB), single dose; assay type: cell-based, human; settings: Non-Small Cell Lung HOP-92, single dose of 10 μM
Method: as §1, §2, §3, §4, §5, §6, §7

CNS SF-268 = test: NCI in vitro cell line screen (SRB), single dose; assay type: cell-based, human; settings: CNS SF-268, single dose of 10 μM
Method: as §1, §2, §3, §4, §5, §6, §7

[2] = system: MCF7 (breast cancer) cells; test: MTT cytotoxicity assay in MCF7 breast cancer cells; assay type: cell-based; settings: 65 hours incubation, read-out: IC50, viability of MCF7 cells from the MTT assay
Method: The cyctoxicity of compounds was determined in MCF 7 (breast cancer) cells.
MCF7 cells were grown in RPMI 1640 media with 10 nM estrogen and 1 mM insulin. Cells were tyripsinized and resuspended at a density of 2.2×10^4 cells per mL. 500 μL of this suspension was added to each well in a 24 well plate. The plates were incubated at 37° C. and 5% CO2 atmosphere overnight. The media was changed, and plates were dosed in triplicate with compound dissolved in DMSO. Cells were dosed not to exceed 0.5% DMSO in solution. Cells were dosed to a final concentration of 100, 50, 25, 12.5, and 6.25 μM of compound. 5-Flurouracil was used as a positive control and dosed in the same manner. Plates were incubated for 65 hours prior to the addition of MTT solution. 500 μL of a 193 μg/mL MTT and media solution was added to each well. Plates were incubated for 3 hours. The MTT solution was removed and 500 μL of DMSO was added to each well. Cells were imaged using GS 800 Bio Rad scanner and Quality One Software. IC50 curves were determined by plotting viability verses compound concentration. Kaleidagraph software was used to calculate the R value for each logarithmic curve fitting.

γ-H2AX = test: Western blot of drug-treated MCF7 cells detecting double-strand break marker γ-H2AX; assay type: cell-based; settings: 4.5 μM, 16 hours, nuclear extract, two trials (FIG. 3)
Method: Vehicle controls were simultaneously prepared by treatment with DMSO.
Nuclear proteins from both the drug-treated and control samples were conducted using NE-PER Nuclear and Cytoplasmic Extraction Kit (Thermo Scientific) using the manufacturer's protocol. In detail, cells were harvested by trypsin-EDTA and centrifuged at 500×g for 5 minutes. The cells were washed to remove traces of trypsin by suspending in 1×PBS, followed by centrifugation at 500×g for 2-3 minutes. The supernatant was removed leaving the cell pellet as dry as possible. A 200 μL volume of ice-cold cytoplasmic extraction reagent I (CER-I), treated Halt™ Protease & Phosphatase Inhibitor Cocktail (Thermo Scientific), was added to the pellet. The cell pellet was suspended by vortexing vigorously for 15 seconds and then incubated on ice for 10 minutes. The mixture is then treated with 11 μL of ice-cold cytoplasmic extraction reagent II (CER-II) and mixed by vortexing on the highest setting for 5 seconds followed by incubation on ice of one minute to allow complete release of cytoplasmic contents. […]
Protein concentration in each sample and control was determined by Bradford Assay using Coomassie Plus™ (Bradford) Assay Kit (Thermo Scientific), applying the manufacturer's instruction. […] The absorbance is then measured at 595 nm using a Synergy 4 plate reader (Biotek). […]

Row | Compound | IC50 [2] | other results
1 | CC(C)(C)C(OCc1c[nH]c(=O)[nH]c1=O)c1ccccc1[N+](=O)[O-] (centres unmarked) [KB-1-17, 5-[1-(2-nitrophenyl)-2,2-(dimethyl)propoxymethyl]uracil] | 81 µM | Growth Percent (Prostate PC-3): 93%; Growth Percent [1]: 68%; Growth Percent (CNS SF-268): 91%
2 | O=c1[nH]c(=O)n([C@H]2C[C@H](O)[C@@H](CO)O2)cc1COC(c1ccccc1[N+](=O)[O-])C1CCCCC1 (some centres unmarked) [PRW-1-18, 5-[1-(2-nitro)phenyl-1-(cyclohexyl)methoxymethyl]-2′-deoxyuridine] | 63 µM | –
3 | CC(C)(C)CC(OCc1c[nH]c(=O)[nH]c1=O)c1ccccc1 (centres unmarked) [SL-1-7, 5-[1-phenyl-3,3-(dimethyl)butoxymethyl]uracil] | 37 µM | –
4 | COc1cccc(C(OCc2cn([C@H]3C[C@H](O)[C@@H](CO)O3)c(=O)[nH]c2=O)C(C)(C)C)c1 (some centres unmarked) [SS-1-11, 5-[1-(3-methoxyphenyl)-2,2-(dimethyl)propoxymethyl]-2′-deoxyundine] | 66 µM | –
5 | O=c1[nH]c(=O)n([C@H]2C[C@H](O)[C@@H](CO)O2)cc1COC(c1ccccc1)c1c([N+](=O)[O-])cccc1[N+](=O)[O-] (some centres unmarked) [TZ-1-13F3, 5-[{(2,6-dinitrophenyl)phenyl}methoxymethyl]-2′-deoxyuridine] | 44 µM | –
6 | CC(OCc1cn([C@H]2C[C@H](O)[C@@H](CO)O2)c(=O)[nH]c1=O)c1ccccc1 (some centres unmarked) [VAL-1-10, 5-[1-(phenyl)ethoxymethyl]-2′-deoxyuridine] | – | IC50 ([2]; Homo sapiens, MCF7, 65 h): > 200 µM
7 | CC(OCc1cn([C@H]2C[C@H](O)[C@@H](CO)O2)c(=O)[nH]c1=O)c1ccccc1[N+](=O)[O-] (some centres unmarked) [VAL-1-25, 5-[1-(2-nitrophenyl)ethoxymethyl]-2′-deoxyuridine] | – | IC50 ([2]; Homo sapiens, MCF7, 65 h): ~170 µM
8 | CC(OCc1cn([C@H]2C[C@H](O)[C@@H](CO)O2)c(=O)[nH]c1=O)c1ccccc1[N+](=O)[O-] (some centres unmarked) [VAL-1-26, 5-[1-(2-nitrophenyl)ethoxymethyl]-2′-deoxyuridine] | ~150 µM | –
9 | CC(C)(C)C(OCc1cn([C@H]2C[C@H](O)[C@@H](CO)O2)c(=O)[nH]c1=O)c1ccccc1C#N (some centres unmarked) [VAL-1-28, 5-[1-(2-cyanophenyl)-2,2-(dimethyl)propoxymethyl]-2′-deoxyuridine] | 106 µM | –
10 | CC(C)(C)C(OCc1cn([C@H]2C[C@H](O)[C@@H](CO)O2)c(=O)[nH]c1=O)c1ccc(C#Cc2ccccc2)cc1[N+](=O)[O-] (some centres unmarked) [VAL-1-36/38, 5-[1-(4-{2-phenylacetylenyl}-2-nitrophenyl)-2,2-(dimethyl)-1-propoxymethyl]-2′-deoxyuridine] | 9 ± 1 µM | double-strand break marker γ-H2AX (DNA damage response) (γ-H2AX): causes a DNA damage response
11 | COCC#Cc1ccc(C(OCc2cn([C@H]3C[C@H](O)[C@@H](CO)O3)c(=O)[nH]c2=O)C(C)(C)C)c([N+](=O)[O-])c1 (some centres unmarked) [VAL-1-48, 5-[1-(4-{3-methoxy}proyn-1yl-2-nitrophenyl)-2,2-(dimethyl)-1-propoxymethyl]-2′-deoxyuridine] | 74 ± 7 µM | –
12 | CC(C)(C)C(OCc1cn([C@H]2C[C@H](O)[C@@H](CO)O2)c(=O)[nH]c1=O)c1ccc(C#C[Si](C)(C)C)cc1[N+](=O)[O-] (some centres unmarked) [VAL-1-49, 5-[1-(4-{trimethylsilyl}acetylenyl-2-nitrophenyl)-2,2-(dimethyl)-1-propoxymethyl]-2′-deoxyuridine] | 29 ± 3 µM | –
13 | C#Cc1ccc(C(OCc2cn([C@H]3C[C@H](O)[C@@H](CO)O3)c(=O)[nH]c2=O)C(C)(C)C)c([N+](=O)[O-])c1 (some centres unmarked) [VAL-1-50, 5-[1-(4-acetylenyl-2-nitrophenyl)-2,2-(dimethyl)propoxymethyl]-2′-deoxyuridine] | 89 ± 14 µM | –
